Experimental data reported in US20200077655A1, “Use of an Acyclic Picolinamide Compound as a Fungicide for Control of Phytopathogenic Fungi in Orchard, Vineyard and Plantation Crops” (Dow AgroSciences LLC, priority 2017, published 2020).

What was measured:
Type in all cases: in vivo
[1] = tested on: Rhizopus stolonifer (RIZPST); assay: Field microplot assessment on Rhizopus rot on apricots; settings: field grown apricots
Excerpt: A field trial assessing the utility of Compound I on rot diseases of stone fruits was done using apricots in a microplot method, part of an experimental trial designed as a randomized complete block with four replications. In a microplot method, two mature fruits on a single branch or cluster of fruits were selected for each replication (for a total of 10 replications) instead of using an entire replication. Colored flagging identified treatments. Fungicidal treatments containing Compound I, applied in a 5% EC formulation and tank mixed with an adjuvant (Trycol, 50% w/w at 0.2% v/v), were sprayed on apricots (PRNAR) at rates of 50, 100, and 150 grams of active ingredient per hectare (g ai/ha). The applications to the selected mature apricots were done at 7 days before harvest using a hand held manual spray bottle at a water volume of 500 L/ha. One day after application, a ZipLoc plastic bag was placed over the fruit or fruit cluster and an inoculation mix of MONIFC (Rhizopus was from natural population present in the orchard) was sprayed inside covering the fruits. The plastic bags were removed after 24 hours. At harvest, the fruits were collected in the field and placed in plastic Tupperware containers. 150 mL of de-ionized water was poured in the bottom of the Tupperware containers and the fruits were sprayed with a light mist of water. The containers were brought to the lab, enclosed in a large trash bag to keep the humidity high, and incubated on a lab bench at approximately 23° C. Visual disease incidence was assessed during the trial at 9 and 16 days after application. Area under the disease progress curve (AUDPC) was calculated for each plot using the sets of recorded incidence data. Relative AUDPC (% control based on AUDPC) was calculated as percent of the nontreated control.

[2] = tested on: Erysiphe necator (UNCINE); assay: Field assessment of grape powdery mildew; settings: grapes, 5% EC + Trycol
Excerpt: A fungicidal treatment containing Compound I, applied in a 5% EC formulation and tank mixed with an adjuvant (Trycol, 50% w/w at 0.2% v/v), was sprayed on the plant canopy of grape plants (VITVI, Chardonnay variety) at rates of 50, 100 and 150 grams of active ingredient per hectare (g ai/ha). The trial was based on six foliar applications during the growing season at approximately 10 day intervals with natural infections in open field conditions. The treatment was part of an experimental trial designed as a randomized complete block with four replications and a plot of approximately 3.0×7.0 m. Formulations of compound I were applied at water volume of 1000 L/ha, using a self-propelled multi-plot track sprayer (TRACTAIR, Andreoli Engineering) and pressurized at 400 kPa.
Disease evaluations were recorded as percent of leaves and fruit with disease (incidence) and percent diseased area on leaves and fruit (severity, using 100 random leaves and fruit bunches. Grape powdery mildew was assessed three times, with the initial assessment at 2 days after the fourth application. Area under the disease progress curve (AUDPC) was calculated for each plot using the sets of recorded severity data. Relative AUDPC (% control based on AUDPC) was calculated as percent of the nontreated control. Results are given in Table 8.

[3] = tested on: Botrytis cinerea (BOTRCI); assay: Field assessment of gray mold on strawberry
Excerpt: On strawberry: A fungicidal treatment containing Compound I, applied in a 5% EC formulation and tank mixed with an adjuvant (Trycol, 50% w/w at 0.2% v/v), was sprayed on strawberry plants (FRAAN, Candonga variety) at rates of 50, 150 and 200 grams of active ingredient per hectare (g ai/ha). The trial was based on four broadcast applications during the growing season at approximately 10 day intervals with grey mold inoculation after the last application (plant growth stage B85). The treatment was part of an experimental trial designed as a randomized complete block with four replications and a plot size of approximately 2.0×5.0 m. Formulations of compound I were applied at water volume of 800 L/ha, using a backpack plot sprayer (BKPCKENG, solo 433; HCSOLID—Albutz ATR80 Yellow nozzle) and pressurized at 300 kPa.
Disease severity was recorded as a percentage of fruit incidence of damaged fruits on a random sample of 100 fruits per plot. Gray mold infection was assessed twice at 10 days after the third application (10DAAC) and 10DAAD. Area under the disease progress curve (AUDPC) was calculated for each plot using the sets of recorded incidence data. Relative AUDPC (% control based on AUDPC) was calculated as percent of the nontreated control.

[4] = tested on: Stigmina carpophila (STIGCA); assay: Field assessment of shot hole in almond, leaf and nut incidence; settings: for Leaf Incidence of STIGCA 121 DAAA: untreated 3.1; for Nut Incidence of STIGCA 121 DAAA: untreated 6.3
Excerpt: A fungicidal treatment containing Compound I, applied in an SC formulation (MSO built-in) and tank mixed with an adjuvant (Adsee C80W 80%), was sprayed on almond trees (PRNDU, Butte variety), 2 applications, […] The experimental plots were run under natural infestation. The treatment was part of an experimental trial designed as a randomized complete block (RCB) with three replications and a plot of approximately 16×22 ft. Compound I was applied at water volume of 100 gal/acre, using a motorized backpack sprayer (Orifice nozzle 2.3 setting).
Leaf incidence (number of visual diseased leaves per 20 leaves per tree on the whole plot) was assessed 121 days after application A (121 DAAA).
Nut incidence (number of visual diseased nuts per 10 nuts per tree on the whole plot) was assessed 121 days after application A (121 DAAA).

[5] = tested on: Tranzschelia discolor (TRANDI); assay: Field assessment of rust in almond; settings: untreated 61.3
Excerpt: A fungicidal treatment containing Compound I, applied in an SC formulation (MSO-buit in) and tank mixed with an adjuvant (Adsee C80W 80%), was sprayed on almond trees (PRNDU, Butte variety) with 2 applications at growth stages BBCH67-69 and BBCH69-72 at rates of 60, 120, 150, and 180 g ai/ha. The experimental plots were run under natural infestation. The treatments were part of an experimental trial designed as a randomized complete block (RCB) with three replications and a plot of approximately 16×22 ft. Compound I was applied at water volume of 100 gal/acre, using a motorized backpack sprayer.
Percent leaf incidence (calculated from number of visual diseased leaves per 50 leaves per one tree) was assessed and recorded at 105 days after application A (105 DAAA).

[6] = 120 g ai/ha, Adsee C80W, 300 g ai/ha

COc1ccnc(C(=O)N[C@@H](C)C(=O)O[C@@H](C)C(c2ccc(F)cc2)c2ccc(F)cc2)c1OC(C)=O [Compound I, (S)-1,1-bis(4-fluorophenyl)propan-2-yl (3-acetoxy-4-methoxypicolinoyl)-L-alaninate]
Percent control (AUDPC) from fruit incidence, RIZPST ([1]; 50 g ai/ha): B (51-75) | Percent control (AUDPC) from fruit incidence, RIZPST ([1]; 100 g ai/ha): C (26-50) | Percent control (AUDPC) from fruit incidence, RIZPST ([1]; 150 g ai/ha): C (26-50) | Percent control (AUDPC) from bunch infection assessments ([2]; 50 g ai/ha): B (51-75) | Percent control (AUDPC) from bunch infection assessments ([2]; 100 g ai/ha): B (51-75) | Percent control (AUDPC) from bunch infection assessments ([2]; 150 g ai/ha): A (76-100) | Percent control (AUDPC) from leaf infection assessments ([2]; 50 g ai/ha): A (76-100) | Percent control (AUDPC) from leaf infection assessments ([2]; 100 g ai/ha): A (76-100) | Percent control (AUDPC) from leaf infection assessments ([2]; 150 g ai/ha): A (76-100) | Percent control (AUDPC) from fruit infection assessments ([3]; 50 g ai/ha): B (51-75) | Percent control (AUDPC) from fruit infection assessments ([3]; 150 g ai/ha): A (76-100) | Percent control (AUDPC) from fruit infection assessments ([3]; 200 g ai/ha): A (76-100) | Leaf Incidence of STIGCA 121 DAAA ([4]; 60 g ai/ha, MSO, 120 g ai/ha): 3.0 Number of Leaves per 20 Leaves | Nut Incidence of STIGCA 121 DAAA ([4]; 60 g ai/ha, MSO, 120 g ai/ha): 5.6 Number of Nuts per 10 Nuts | Leaf Incidence of STIGCA 121 DAAA [4, 6]: 1.4 Number of Leaves per 20 Leaves | Nut Incidence of STIGCA 121 DAAA [4, 6]: 2.5 Number of Nuts per 10 Nuts | Leaf Incidence of STIGCA 121 DAAA ([4]; 120 g ai/ha, MSO, 240 g ai/ha): 2.2 Number of Leaves per 20 Leaves | Nut Incidence of STIGCA 121 DAAA ([4]; 120 g ai/ha, MSO, 240 g ai/ha): 6.0 Number of Nuts per 10 Nuts | Leaf Incidence of STIGCA 121 DAAA ([4]; 150 g ai/ha, MSO, 300 g ai/ha): 1.7 Number of Leaves per 20 Leaves | Nut Incidence of STIGCA 121 DAAA ([4]; 150 g ai/ha, MSO, 300 g ai/ha): 4.4 Number of Nuts per 10 Nuts | Leaf Incidence of STIGCA 121 DAAA ([4]; 180 g ai/ha, MSO, 360 g ai/ha): 1.9 Number of Leaves per 20 Leaves | Nut Incidence of STIGCA 121 DAAA ([4]; 180 g ai/ha, MSO, 360 g ai/ha): 4.4 Number of Nuts per 10 Nuts | Percent Visual Leaf Incidence of TRANDI 89 DAAB ([5]; 60 g ai/ha, MSO, 120 g ai/ha): 13.3% | Percent Visual Leaf Incidence of TRANDI 89 DAAB [5, 6]: 11.3% | Percent Visual Leaf Incidence of TRANDI 89 DAAB ([5]; 120 g ai/ha, MSO, 240 g ai/ha): 9.3% | Percent Visual Leaf Incidence of TRANDI 89 DAAB ([5]; 150 g ai/ha, MSO, 300 g ai/ha): 6.0% | Percent Visual Leaf Incidence of TRANDI 89 DAAB ([5]; 180 g ai/ha, MSO, 360 g ai/ha): 6.0%
